We go through two molecules from patent publication US9751824B2, “Acetyl salicyclic acid dimers, synthesis thereof, and uses thereof to prevent and treat complement-mediated disorders” (Aurin Biotech Inc., priority 2013, dated 2017).

Assay [1] relates to classical complement pathway. Description: CH50 assay, hemolysis of sensitized human red blood cells by zymosan-activated cat serum. The settings on record: Felis catus, Erythrocyte, read-out: IC50, protection of human red blood cells from complement attack. It counts as cell-based. The method, then: (§1) To evaluate the strength of blockade of the classical complement pathway achieved by DAS-1 and DAS-2, a standard CH50 assay was employed. Normal human red blood cells were sensitized by incubation overnight with rabbit anti red blood cell antibody. Then dilutions of serum activated by zymosan, with and without various amounts of DAS-1, DAS-2, or the precursor acetylsalicylic acid, were incubated with the sensitized red blood cells for 1 hour at 37° C. The incubates were centrifuged at 5,000 rpm for 10 min. The hemoglobin released into the serum from red blood cells that had been destroyed by complement attack, was determined by reading the optical density (OD) at 405 nm. As a positive control, red blood cells were 100% lysed with water, and as a negative control, no serum was added to the incubate.
(§2) DAS-1 and DAS-2 protected human red blood cells from complement attack by zymogen activated serum of human, rat, cat, and dog. FIG. 3A illustrates the result for DAS-1.

Assay [2] relates to classical complement pathway. Description: CH50 assay, hemolysis of sensitized human red blood cells by zymosan-activated human serum. The note with it: Erythrocyte, zymosan-activated human serum, read-out: IC50, protection of human red blood cells from complement attack. The class given is cell-based. The method, then: as §1, §2
For assay [3], the target named is T1, C5b-9 membrane attack complex (Homo sapiens, UniProt P02748).
T1 construct: from tissue; host or cells: human serum, with human red blood cells as the target membrane
As to the kind of experiment: Western blot of red blood cell membranes, classical pathway (FIG. 4A). It counts as cell-based. The settings on record: zymosan-activated human serum, alternative pathway blocked by antibodies to properdin and Factor D. The method, then:
To determine at which stage of the complement cascade blockade was occurring, a variation of the CH50 assay was carried out. Instead of measuring hemolysis, western blot analyses of red blood cell membranes were carried out to determine which serum complement proteins were converted into activated complement products that became attached to susceptible membranes. Such attachment only occurs up to the stage of blockade. At stages beyond the blockade, they remain unchanged in the serum. Undiluted human serum was treated for 30 min with DAS-1, DAS-2, or acetyl salicylic acid. Then antibody-conjugated red blood cells in an equal volume were added. The mixtures were incubated at 37° C. for 1 h. They were then treated with a lysis buffer followed by a loading buffer for western blots. Equal amounts of protein from each sample were loaded onto gels and separated by 10% SDS-PAGE. Following SDS-PAGE, proteins were transferred to a PVDF membrane. The membranes were then treated with various primary antibodies followed by labeled secondary antibodies using well established techniques. Bands recognized by the antibodies were visualized by use of an enhanced chemiluminescence system and exposure to photographic film. For probing the same membrane with different antibodies, the membranes were treated with stripping buffer and then treated as before with a different primary antibody. […] The adjacent lane illustrates the effect of adding to the serum zymosan to activate complement, and antibodies to properdin and Factor D to block the alternative pathway. Sensitized red blood cells then become hemolyzed by classical pathway attack. Native serum proteins are consumed and become incorporated into the red cell membranes. C1q was not metabolized, but the band was intensified due to its dissociation from the C1 complex. Native C3 was no longer detected because it had been cleaved, and the C3b fragment had become covalently attached to the membrane. Its degradation product C3d was detected. C4 was no longer detected because it had similarly been cleaved and the C4b fragment attached to the membrane and metabolized into its degradation product C4d. This fragment was also detected. C5 was cleaved and a band for the C5a product detected. Finally, the C5b-9 membrane attack complex, which had formed on the red cell membrane causing its hemolysis, was detected. The next two lanes show the effects of incubation in the presence of DAS-1, DAS-2. […] This establishes that the block provided by DAS-1 and DAS-2 was at the MAC assembly stage.

The test system of assay [4] is classical complement pathway. As to the kind of experiment: CH50 assay, hemolysis of sensitized human red blood cells by zymosan-activated rat serum. It counts as cell-based. The note with it: Erythrocyte, read-out: IC50, protection of human red blood cells from complement attack. The method, then: as §1, §2
Assay [5] deals with classical complement pathway. Description: CH50 assay, hemolysis of sensitized human red blood cells by zymosan-activated dog serum. The settings on record: Canis lupus familiaris, Erythrocyte, read-out: IC50, protection of human red blood cells from complement attack. The class given is cell-based. The method, then:
as §1, §2

The subject of the next assay is C4. Description: Fluorometric binding to immobilized protein (FIG. 6). Details: species or system human. The settings on record: compound 100 microgm/mL; protein 32 ng/mL. The method, then: The next set of experiments directly tested the binding of DAS-1 and DAS-2 to properdin, Factor D and complement proteins. These proteins were immobilized on microwell plates in a concentration range of 1-32 ng/mL. DAS-1 and DAS-2 were then added at a concentration of 100 microgm/mL and the solutions incubated as previously described. DAS-1 and DAS-2 binding to the proteins was then assayed according to a previously published fluorometric method except that the excitation frequency was […] and the emission frequency […]. […] Such binding explains why DAS-1 and DAS-2 block the alternative pathway at the stage where Factor D cleaves PC3B to form PC3Bb, and both the classical and alternative pathways at the stage where C9 adds to C5b678. […] There was no binding of DAS-1 or DAS-2 to properdin and only background fluorescence was observed.

Assay [6] relates to C3 convertase of the alternative pathway. Description: Western blot of red blood cell membranes, alternative pathway with C1 inhibitor (FIG. 5). The settings on record: 1 microM; serum 15 fold dilution, zymosan, C1 inhibitor 1.8 micrograms/mL. It counts as cell-based, human. On the procedure:
To determine the effects of DAS-1 and DAS-2 on the alternative pathway, further experiments were carried out as shown in FIG. 5. […] To these mixtures human RBCs (5×10^9) were added. The mixtures were incubated for 1 h at 37° C. and centrifuged at 5,000 rpm for […]. The pellets were washed two times with Hank's balanced salt solution (HBSS) and treated with sample loading buffer for SDS-PAGE and immunoblotting. The buffer consisted of 50 mM Tris (pH 6.8), 0.1% SDS, 0.1% bromophenol blue and 10% glycerol. To preserve the molecular complexes that had formed, mild conditions for SDS-PAGE were followed. The sample loading buffer used was 50 mM Tris (pH 6.8), 1% SDS, 0.1% bromophenol blue and 10% glycerol and 2% beta-mercaptoethanol.
However an independent band for C3b was not detected. […] Lanes 3 and 4 show the results obtained in the presence of 1 microM of DAS-1 or DAS-2. […] Instead, strong bands for the earlier steps of PC3b and PC3bB appeared.

T1 sequence (P02748 22-559, one chain of several): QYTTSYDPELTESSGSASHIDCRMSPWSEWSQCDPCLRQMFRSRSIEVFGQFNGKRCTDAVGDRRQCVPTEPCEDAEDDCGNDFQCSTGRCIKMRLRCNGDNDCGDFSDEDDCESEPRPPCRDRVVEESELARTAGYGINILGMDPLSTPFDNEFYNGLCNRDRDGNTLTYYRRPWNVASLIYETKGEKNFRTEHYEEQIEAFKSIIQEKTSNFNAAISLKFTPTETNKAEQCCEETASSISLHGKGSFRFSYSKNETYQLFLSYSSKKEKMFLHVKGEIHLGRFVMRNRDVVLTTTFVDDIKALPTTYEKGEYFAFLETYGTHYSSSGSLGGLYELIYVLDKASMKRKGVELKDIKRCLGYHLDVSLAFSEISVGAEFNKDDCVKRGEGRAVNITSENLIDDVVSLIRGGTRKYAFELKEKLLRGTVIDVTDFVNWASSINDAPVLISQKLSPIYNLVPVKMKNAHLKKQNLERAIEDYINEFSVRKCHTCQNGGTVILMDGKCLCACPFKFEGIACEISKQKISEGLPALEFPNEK

On to `CC(=O)Oc1ccc(-c2ccc(OC(C)=O)c(C(=O)O)c2)cc1C(=O)O` [DAS-1, 4,4′-diacetoxy-[1,1′-biphenyl]-3,3′-dicarboxylic acid], for which, in assay [1] (1 hour at 37° C., OD 405 nm), the IC50 came to 168 nM. Also, the half-inhibitory concentration (IC50) in assay [2] (1 hour at 37° C., OD 405 nm) was 208 nM. Further, in assay [3], the “bands for the opsonization steps versus unprotected lane” value is recorded as “Identical bands”, the “detection of membrane attack complex on red cell membranes” value was “not detected” and the “hemolysis of red cells” value is recorded as “not hemolyzed”. Besides, in assay [4] (1 hour at 37° C., OD 405 nm), the IC50 came out at 294 nM. Moreover, the IC50 in assay [5] (1 hour at 37° C., OD 405 nm) was determined as 142 nM. The “binding to C4” value with C4 is listed as “did not bind”. In assay [6], the “bands for PC3bBb and PC3bBbC3b on RBC membranes” value is on record as “did not form”; the “bands for the earlier steps of PC3b and PC3bB on RBC membranes” value was “strong bands”.
In the case of `CC(=O)Oc1ccc(Cc2ccc(OC(C)=O)c(C(=O)O)c2)cc1C(=O)O` [DAS-2, 5,5′-methylenebis(2-acetoxybenzoic acid)], the IC50 in assay [1] (unit inferred) was 128 nM; in assay [2] (unit inferred) it was 113 nM; in assay [4] (unit inferred), 167 nM; in assay [5] (unit inferred), 98 nM. For the same molecule, the “bands for the opsonization steps versus unprotected lane” value in assay [3] was “Identical bands”. Besides, the “detection of membrane attack complex on red cell membranes” value in assay [3] is “not detected”. Further, the “hemolysis of red cells” value in assay [3] is reported as “not hemolyzed”. Also, the “binding to C4” value in the assay on C4 is reported as “did not bind”. Besides, the “bands for PC3bBb and PC3bBbC3b on RBC membranes” value in assay [6] was “did not form”. The “bands for the earlier steps of PC3b and PC3bB on RBC membranes” value in assay [6] is on record as “strong bands”.
